# Laboratory results taken from ChEMBL document CHEMBL3886572, “Cyclic amides” (2016).
# Molecular target: Procathepsin L (Homo sapiens, UniProt P07711)
# Assay: Assay buffer: 100 mM potassium phosphate pH 6.5, EDTA-Na 5 mM, Triton X-100 0.001%, DDT 5 mM. […] AMC=7-Amino-4-Methyl-Coumarin. […] Excitation 360 nm, Emission 465 nm. Enzyme is added to the substance dilutions in 96-well microtitre plates and the reaction is started with substrate.
# Procathepsin L, sequence (P07711 whole entry): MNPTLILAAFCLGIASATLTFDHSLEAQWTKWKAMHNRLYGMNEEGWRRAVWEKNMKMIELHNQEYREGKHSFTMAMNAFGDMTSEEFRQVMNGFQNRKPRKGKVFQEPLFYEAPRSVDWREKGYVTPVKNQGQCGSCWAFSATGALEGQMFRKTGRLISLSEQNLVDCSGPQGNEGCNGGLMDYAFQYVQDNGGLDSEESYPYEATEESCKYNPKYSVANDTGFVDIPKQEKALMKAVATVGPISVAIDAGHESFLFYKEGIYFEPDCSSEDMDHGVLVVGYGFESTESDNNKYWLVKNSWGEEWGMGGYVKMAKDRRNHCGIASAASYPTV
compound,measurement,value
N#Cc1ccc2c(c1)C(=O)N[C@H](C(=O)NC1(C#N)CC1)Cc1ccc(c(Cl)c1)OC/C=C/CO2,IC50,6.9 nM
